The text below walks through data of ChEMBL document CHEMBL1773061, “Chiral sulfoxides as metabolites of 2-thioimidazole-based p38α mitogen-activated protein kinase inhibitors: enantioselective synthesis and biological evaluation” (J Med Chem, 2011).

Holding throughout (assay type): tissue-based
For assay [1], the target named is T1, Mitogen-activated protein kinase 14 (Homo sapiens, UniProt Q16539). Description: Inhibition of p38 alpha MAPK in human whole blood assessed as suppression of LPS-induced TNF-alpha release by immunosorbent non-radioactive enzyme assay relative to SB203580.
T1 sequence (Q16539 whole entry): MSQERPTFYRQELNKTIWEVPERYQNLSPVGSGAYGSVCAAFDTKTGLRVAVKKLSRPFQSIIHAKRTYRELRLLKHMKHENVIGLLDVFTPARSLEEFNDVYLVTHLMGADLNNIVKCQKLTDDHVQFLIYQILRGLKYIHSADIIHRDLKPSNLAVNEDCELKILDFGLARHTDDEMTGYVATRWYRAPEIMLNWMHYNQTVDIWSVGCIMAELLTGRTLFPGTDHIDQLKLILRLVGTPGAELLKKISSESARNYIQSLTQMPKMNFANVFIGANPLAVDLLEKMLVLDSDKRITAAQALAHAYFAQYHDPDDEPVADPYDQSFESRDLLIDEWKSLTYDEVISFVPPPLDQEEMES
Assay [2] has as its target T1, Mitogen-activated protein kinase 14. Briefly: Inhibition of p38 alpha MAPK in human whole blood assessed as phosphorylation of ATF-2 by immunosorbent non-radioactive enzyme assay relative to SB203580.
The target is the same in assay [3]. Description: Inhibition of p38 alpha MAPK in human whole blood assessed as phosphorylation of ATF-2 by immunosorbent non-radioactive enzyme assay.
Assay [4] has the same target. Briefly: Inhibition of p38 alpha MAPK in human whole blood assessed as suppression of LPS-induced TNF-alpha release by immunosorbent non-radioactive enzyme assay.

The structures appear in SMILES notation.

Usually IC50 stands for the point on the concentration scale where inhibition reaches its midpoint. `CC(C)Nc1cc(-c2[nH]c([S+]([O-])C(C)C)nc2-c2ccc(F)cc2)ccn1` (racemic): the Ratio IC50 in assay [1] came out at 4.92; in assay [2], 5. Also, the IC50 in assay [3] was 3 nM; in assay [4] it was 250 nM.
Taken in the same sequence, the figures for `CC(C)Nc1cc(-c2[nH]c([S@+](C)[O-])nc2-c2ccc(F)cc2)ccn1` were 2.29, 2.54, 24 nM and 840 nM.
`CC(C)Nc1cc(-c2[nH]c(SC(C)C)nc2-c2ccc(F)cc2)ccn1`: the Ratio IC50 in assay [1] turned out to be 19.4; in assay [2] it was 3.75. For the same molecule, the IC50 in assay [3] came out at 4 nM; in assay [4] it was 120 nM.
Regarding `CSc1nc(-c2ccc(F)cc2)c(-c2ccnc(N[C@H](C)C(C)C)c2)[nH]1`, the Ratio IC50 worked out at 8.67 in assay [1] and 1.8 in assay [2]. Moreover, the IC50 in assay [3] turned out to be 40 nM; in assay [4], 180 nM.
For `CC(C)[S@@+]([O-])c1nc(-c2ccc(F)cc2)c(-c2ccnc(NC3CCCCC3)c2)[nH]1` the same measures were 7.64, 3.09, 11 nM and 250 nM.
In the case of `C[S@@+]([O-])c1nc(-c2ccc(F)cc2)c(-c2ccnc(NC(=O)Cc3ccc(F)cc3)c2)[nH]1`, the Ratio IC50 was 0.27 in assay [1] and 1 in assay [2]. In addition, the IC50 came to 77 nM in assay [3] and 6410 nM in assay [4].
With `C[S+]([O-])c1nc(-c2ccc(F)cc2)c(-c2ccnc(NC3CCOCC3)c2)[nH]1` (racemic), the values for the Ratio IC50 in assay [1] and in assay [2] were 3.62 and 4.67, respectively. For the same molecule, the IC50 in assay [3] amounted to 12 nM; in assay [4], 340 nM.
For `CC(C)[S+]([O-])c1nc(-c2ccc(F)cc2)c(-c2ccnc(NC3CCCCC3)c2)[nH]1` (racemic) the same measures were 1.72, 2.17, 18 nM and 1080 nM.
For `CSc1nc(-c2ccc(F)cc2)c(-c2ccnc(NC(C)C)c2)[nH]1` the same measures were 12, 18, 2 nM and 130 nM.
